In assay [1] the target is PI3Kα (p110[H1047R]/p85) kinase (Homo sapiens, UniProt P42336, H1047R). The experiment in a line: PI3Kα (p110[H1047R]/p85) kinase ADP-Glo Assay. The format is biochemical. The note with it: 25 uM ATP; for selectivity: WT/H1047R: ADP-Glo Assay IC50 ratio. In a few lines:
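PI3Kα H1047R/p85 pre-incubated 30 min at room temperature with PI(4,5)P2:PS substrate ([…]) and compound ([…]) in HEPES pH 7.5 buffer with MgCl2; ATP ([…]) then added for 120 min. ADP quantified by ADP-Glo luminescence; IC50 from four-parameter logistic fit.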
Background: ADP-Glo first removes unused ATP, then detects ADP through luciferase.

For assay [2], the system named is PI3Kα H1047R mutated cell line T-47D. The assay is described as follows: Phospho-AKT (Ser473) Inhibition Assay (HTRF), T-47D. It is filed as cell-based. Conditions: for IC50: Homo sapiens, T47D, T-47D, 1 hour treatment, read-out: p-AKT Inhibition assay (S473) IC50 T-47D; for Selectivity: SK-BR-3/T-47D (p-AKT): p-AKT (S473) IC50 ratio. A digest of the protocol:
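Cells seeded overnight in insulin-supplemented MEM, then treated 1 h with 11-point 1:3 compound dilutions (10 μM to 0.1 nM final, 0.1% DMSO). Lysates assayed for phospho-AKT Ser473 by HTRF; IC50 from 4-parameter logistic fit, normalised to DMSO (max) and 10 μM GDC0077 (min).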
Background: In TR-FRET formats the signal depends on donor and acceptor labels being close together.

Structures are written as SMILES.

In general, IC50 refers to the concentration that gives 50% inhibition.

Sequence of PI3Kα (p110[H1047R]/p85) kinase (P42336 whole entry H1047R): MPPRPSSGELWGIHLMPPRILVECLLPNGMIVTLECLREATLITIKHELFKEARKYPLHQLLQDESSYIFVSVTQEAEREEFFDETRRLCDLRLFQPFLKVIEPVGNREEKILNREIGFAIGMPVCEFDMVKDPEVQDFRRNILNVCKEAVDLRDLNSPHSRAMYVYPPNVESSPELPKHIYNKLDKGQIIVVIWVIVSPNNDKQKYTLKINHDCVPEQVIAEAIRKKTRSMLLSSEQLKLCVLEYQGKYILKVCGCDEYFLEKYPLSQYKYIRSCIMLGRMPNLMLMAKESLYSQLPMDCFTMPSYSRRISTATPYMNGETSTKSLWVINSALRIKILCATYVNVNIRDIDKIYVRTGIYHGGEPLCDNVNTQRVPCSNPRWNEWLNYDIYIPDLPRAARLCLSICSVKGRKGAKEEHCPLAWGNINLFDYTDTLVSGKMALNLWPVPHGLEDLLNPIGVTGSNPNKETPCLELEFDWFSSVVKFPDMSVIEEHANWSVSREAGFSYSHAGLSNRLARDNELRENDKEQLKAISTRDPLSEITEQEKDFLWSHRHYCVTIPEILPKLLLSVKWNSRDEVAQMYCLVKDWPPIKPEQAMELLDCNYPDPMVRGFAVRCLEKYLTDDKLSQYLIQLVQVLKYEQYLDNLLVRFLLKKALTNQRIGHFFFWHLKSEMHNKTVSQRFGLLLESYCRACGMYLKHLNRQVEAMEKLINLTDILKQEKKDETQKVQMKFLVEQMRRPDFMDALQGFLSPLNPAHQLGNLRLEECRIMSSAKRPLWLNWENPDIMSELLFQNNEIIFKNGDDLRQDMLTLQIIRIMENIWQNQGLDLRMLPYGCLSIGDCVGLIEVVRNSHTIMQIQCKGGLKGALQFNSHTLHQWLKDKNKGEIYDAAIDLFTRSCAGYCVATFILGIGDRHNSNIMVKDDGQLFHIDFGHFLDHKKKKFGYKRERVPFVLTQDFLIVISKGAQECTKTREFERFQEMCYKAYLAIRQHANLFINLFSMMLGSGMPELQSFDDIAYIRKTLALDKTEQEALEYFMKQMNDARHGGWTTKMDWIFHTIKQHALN
Sequence of PI3Kα (p110[H1047R]/p85) kinase (P27986 whole entry partner): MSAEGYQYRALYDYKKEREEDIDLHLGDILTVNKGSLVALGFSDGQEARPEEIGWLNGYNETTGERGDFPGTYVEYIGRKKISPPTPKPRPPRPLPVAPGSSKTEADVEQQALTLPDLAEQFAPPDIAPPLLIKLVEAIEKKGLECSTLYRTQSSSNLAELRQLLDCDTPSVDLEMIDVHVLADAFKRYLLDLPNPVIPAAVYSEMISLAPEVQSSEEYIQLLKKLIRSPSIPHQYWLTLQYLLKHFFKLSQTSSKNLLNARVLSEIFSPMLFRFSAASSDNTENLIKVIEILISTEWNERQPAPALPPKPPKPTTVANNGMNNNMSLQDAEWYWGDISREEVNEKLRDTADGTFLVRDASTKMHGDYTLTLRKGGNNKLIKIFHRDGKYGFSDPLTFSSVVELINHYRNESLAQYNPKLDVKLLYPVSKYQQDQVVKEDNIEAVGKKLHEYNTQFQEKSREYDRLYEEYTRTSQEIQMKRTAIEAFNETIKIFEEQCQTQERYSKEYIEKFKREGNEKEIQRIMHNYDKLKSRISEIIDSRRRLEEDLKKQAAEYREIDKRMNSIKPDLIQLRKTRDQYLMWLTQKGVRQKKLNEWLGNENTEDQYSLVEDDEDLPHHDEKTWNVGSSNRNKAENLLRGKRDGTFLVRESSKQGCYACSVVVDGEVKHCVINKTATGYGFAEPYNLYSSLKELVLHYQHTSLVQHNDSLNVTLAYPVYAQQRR

Consider `Cc1cc([C@H](C)Nc2ccccc2C(=O)O)c2cc(-c3ccccc3)n(C)c(=O)c2c1` [Example 31, (S)-2-((1-(2,7-dimethyl-1-oxo-3-phenyl-1,2-dihydroisoquinolin-5-yl)ethyl)amino)benzoic acid], for which the IC50 in assay [1] is greater than 100000 nM; in assay [2], greater than 10000 nM.

As for `Cc1cc(C(C)Nc2ccccc2C(=O)O)c2cc(-c3ccccc3C#N)n(C)c(=O)c2c1` (centres unmarked) [Example 32, 2-((1-(3-(2-cyanophenyl)-2,7-dimethyl-1-oxo-1,2-dihydroisoquinolin-5-yl)ethyl)amino)benzoic acid], in assay [1], the midpoint of inhibition, the IC50, lay at 332 nM and the “selectivity: WT/H1047R” value is reported as 184.0. Besides, in assay [2], the IC50 turned out to be 264 nM and the “Selectivity: SK-BR-3/T-47D (p-AKT)” value was greater than 38.

In the case of `Cc1cc(C(C)Nc2cccnc2C(=O)O)c2cc(-c3ccc(F)cc3)n(C)c(=O)c2c1` (centres unmarked) [Example 33, 3-((1-(3-(4-fluorophenyl)-2,7-dimethyl-1-oxo-1,2-dihydroisoquinolin-5-yl)ethyl)amino)picolinic acid], in assay [1], it took 1050 nM to reach half-maximal inhibition (IC50) and the “selectivity: WT/H1047R” value came out at 52.6. Also, in assay [2], the concentration for half-maximal inhibition (IC50) was 271 nM and the “Selectivity: SK-BR-3/T-47D (p-AKT)” value came out at 36.6.

`Cc1cc([C@@H](C)Nc2ccccc2C(=O)O)c2cc(-c3ccc(F)cc3)n(C)c(=O)c2c1` [Example 34, (R)-2-((1-(3-(4-fluorophenyl)-2,7-dimethyl-1-oxo-1,2-dihydroisoquinolin-5-yl)ethyl)amino)benzoic acid]: in assay [1], the IC50 stood at 107 nM and the “selectivity: WT/H1047R” value is listed as 39.0. Moreover, in assay [2], the IC50 stood at 20.2 nM and the “Selectivity: SK-BR-3/T-47D (p-AKT)” value is given as greater than 494.

For the molecule `Cc1cc([C@H](C)Nc2ccccc2C(=O)O)c2cc(-c3ccc(F)cc3)n(C)c(=O)c2c1` [Example 35, (S)-2-((1-(3-(4-fluorophenyl)-2,7-dimethyl-1-oxo-1,2-dihydroisoquinolin-5-yl)ethyl)amino)benzoic acid], the IC50 is greater than 100000 nM in assay [1] and greater than 10000 nM in assay [2].

For `Cc1cc(C(C)Nc2ccccc2C(=O)O)c2cc(-c3ccccn3)n(C)c(=O)c2c1` (centres unmarked) [Example 36, 2-((1-(2,7-dimethyl-1-oxo-3-(pyridin-2-yl)-1,2-dihydroisoquinolin-5-yl)ethyl)amino)benzoic acid], in assay [1], the IC50 came to 603 nM and the “selectivity: WT/H1047R” value turned out to be 84.2. Besides, in assay [2], the IC50 is 467 nM and the “Selectivity: SK-BR-3/T-47D (p-AKT)” value is recorded as greater than 21.

As to `Cc1cc(C(C)Nc2ccccc2C(=O)O)c2cc(-c3cccnc3)n(C)c(=O)c2c1` (centres unmarked) [Example 37, 2-((1-(2,7-dimethyl-1-oxo-3-(pyridin-3-yl)-1,2-dihydroisoquinolin-5-yl)ethyl)amino)benzoic acid], in assay [1], inhibition was half-maximal at 309 nM (IC50) and the “selectivity: WT/H1047R” value was determined as 40.6. Besides, in assay [2], the IC50 came to 382 nM and the “Selectivity: SK-BR-3/T-47D (p-AKT)” value is greater than 26.

Consider `Cc1cc(C(C)Nc2ccccc2C(=O)O)c2cc(-c3cncc(F)c3)n(C)c(=O)c2c1` (centres unmarked) [Example 38, 2-((1-(3-(5-fluoropyridin-3-yl)-2,7-dimethyl-1-oxo-1,2-dihydroisoquinolin-5-yl)ethyl)amino)benzoic acid], for which, in assay [1], the IC50 came out at 267 nM and the “selectivity: WT/H1047R” value turned out to be 36.7. In assay [2], the IC50 was 285 nM and the “Selectivity: SK-BR-3/T-47D (p-AKT)” value is given as greater than 35.

Regarding `Cc1cc(C(C)Nc2ccccc2C(=O)O)c2cc(-c3ccc4nn(C)cc4n3)n(C)c(=O)c2c1` (centres unmarked) [Example 39, 2-((1-(2,7-dimethyl-3-(2-methyl-2H-pyrazolo[4,3-b]pyridin-5-yl)-1-oxo-1,2-dihydroisoquinolin-5-yl)ethyl)amino)benzoic acid], in assay [1], 922 nM corresponded to half-maximal inhibition (IC50) and the “selectivity: WT/H1047R” value is given as 11.5. In assay [2], the IC50 was 1110 nM and the “Selectivity: SK-BR-3/T-47D (p-AKT)” value was found to be 5.6.

Take `Cc1cc([C@@H](C)Nc2ccccc2C(=O)O)c2cc(-c3ccc(-c4cnn(C)c4)cc3)n(C)c(=O)c2c1` [Example 40, (R)-2-((1-(2,7-dimethyl-3-(4-(1-methyl-1H-pyrazol-4-yl)phenyl)-1-oxo-1,2-dihydroisoquinolin-5-yl)ethyl)amino)benzoic acid]: in assay [1], 55 nM corresponded to half-maximal inhibition (IC50) and the “selectivity: WT/H1047R” value is recorded as 93.1. In assay [2], the concentration for half-maximal inhibition (IC50) worked out at 24.3 nM and the “Selectivity: SK-BR-3/T-47D (p-AKT)” value amounted to 33.5.

As for `Cc1cc(C(C)Nc2ccccc2C(=O)O)c2cc(C#Cc3ccccc3)n(C)c(=O)c2c1` (centres unmarked) [Example 43, 2-((1-(2,7-dimethyl-1-oxo-3-(phenylethynyl)-1,2-dihydroisoquinolin-5-yl)ethyl)amino)benzoic acid], in assay [1], 235 nM corresponded to half-maximal inhibition (IC50) and the “selectivity: WT/H1047R” value worked out at 10.1. In addition, in assay [2], the IC50 turned out to be 408 nM and the “Selectivity: SK-BR-3/T-47D (p-AKT)” value amounted to 4.0.

With `Cc1cc(C(C)Nc2ccccc2C(=O)O)c2cc(/C=C/c3ccccc3)n(C)c(=O)c2c1` (centres unmarked) [Example 44, (E)-2-((1-(2,7-dimethyl-1-oxo-3-styryl-1,2-dihydroisoquinolin-5-yl)ethyl)amino)benzoic acid], in assay [1], the IC50 stood at 795 nM and the “selectivity: WT/H1047R” value is recorded as 2.3. Moreover, in assay [2], the IC50 was 560 nM and the “Selectivity: SK-BR-3/T-47D (p-AKT)” value turned out to be 3.8.

With `Cc1cc(C(C)Nc2ccccc2C(=O)O)c2cc(C3=Cc4ccccc4CC3)n(C)c(=O)c2c1` (centres unmarked) [Example 45, 2-((1-(3-(3,4-dihydronaphthalen-2-yl)-2,7-dimethyl-1-oxo-1,2-dihydroisoquinolin-5-yl)ethyl)amino)benzoic acid], in assay [1], half-maximal inhibition (IC50) was put at 273 nM and the “selectivity: WT/H1047R” value is listed as 26.4. Moreover, in assay [2], the IC50 stood at 63.9 nM and the “Selectivity: SK-BR-3/T-47D (p-AKT)” value is listed as 44.0.

For the molecule `Cc1cc(C(C)Nc2ccccc2C(=O)O)c2cc(C3=CCN(c4ccccc4)CC3)n(C)c(=O)c2c1` (centres unmarked) [Example 46, 2-((1-(2,7-dimethyl-1-oxo-3-(1-phenyl-1,2,3,6-tetrahydropyridin-4-yl)-1,2-dihydroisoquinolin-5-yl)ethyl)amino)benzoic acid], in assay [1], the midpoint of inhibition, the IC50, lay at 480 nM and the “selectivity: WT/H1047R” value is 23.0. Besides, in assay [2], the IC50 stood at 92.4 nM and the “Selectivity: SK-BR-3/T-47D (p-AKT)” value stood at 54.8.

On to `Cc1cc(C(C)Nc2cc3ccsc3cc2C(=O)O)c2cc(-c3ccccc3)n(C)c(=O)c2c1` (centres unmarked) [Example 47, 5-((1-(2,7-dimethyl-1-oxo-3-phenyl-1,2-dihydroisoquinolin-5-yl)ethyl)amino)benzo[b]thiophene-6-carboxylic acid], for which, in assay [1], the IC50 stood at 525 nM and the “selectivity: WT/H1047R” value is recorded as 27.3. Besides, in assay [2], the IC50 is 57.2 nM and the “Selectivity: SK-BR-3/T-47D (p-AKT)” value is reported as greater than 175.

For the molecule `Cc1cc(C(C)Nc2c(C(=O)O)sc3ccccc23)c2cc(-c3ccccc3)n(C)c(=O)c2c1` (centres unmarked) [Example 48, 3-((1-(2,7-dimethyl-1-oxo-3-phenyl-1,2-dihydroisoquinolin-5-yl)ethyl)amino)benzo[b]thiophene-2-carboxylic acid], in assay [1], the IC50 is 829 nM and the “selectivity: WT/H1047R” value came out at 6.2. Besides, in assay [2], the IC50 came out at 632 nM and the “Selectivity: SK-BR-3/T-47D (p-AKT)” value came out at 6.0.

As for `Cc1cc(C(C)Nc2ccccc2C(=O)O)c2cc(-c3ccc(C(F)(F)F)cc3)n(C)c(=O)c2c1` (centres unmarked) [Example 49, 2-((1-(2,7-dimethyl-1-oxo-3-(4-(trifluoromethyl)phenyl)-1,2-dihydroisoquinolin-5-yl)ethyl)amino)benzoic acid], in assay [1], the midpoint of inhibition, the IC50, lay at 457 nM and the “selectivity: WT/H1047R” value stood at 20.8. In addition, in assay [2], the IC50 stood at 89.2 nM and the “Selectivity: SK-BR-3/T-47D (p-AKT)” value was 50.7.

`Cc1cc(C(C)Nc2ccccc2C(=O)O)c2cc(-c3cccc(C(F)(F)F)c3)n(C)c(=O)c2c1` (centres unmarked) [Example 50, 2-((1-(2,7-dimethyl-1-oxo-3-(3-(trifluoromethyl)phenyl)-1,2-dihydroisoquinolin-5-yl)ethyl)amino)benzoic acid]: in assay [1], the IC50 was determined as 376 nM and the “selectivity: WT/H1047R” value turned out to be 27.6. Also, in assay [2], the IC50 was 86.6 nM and the “Selectivity: SK-BR-3/T-47D (p-AKT)” value was 79.1.

In the case of `Cc1cc(C(C)Nc2ccccc2C(=O)O)c2cc(-c3ccc(C(C)(C)O)cc3)n(C)c(=O)c2c1` (centres unmarked) [Example 51, 2-((1-(3-(4-(2-hydroxypropan-2-yl)phenyl)-2,7-dimethyl-1-oxo-1,2-dihydroisoquinolin-5-yl)ethyl)amino)benzoic acid], in assay [1], the IC50 worked out at 247 nM and the “selectivity: WT/H1047R” value was determined as 42.1. Moreover, in assay [2], the IC50 came to 167 nM and the “Selectivity: SK-BR-3/T-47D (p-AKT)” value is recorded as 38.7.

Take `CC#Cc1ccc(-c2cc3c(C(C)Nc4ccccc4C(=O)O)cc(C)cc3c(=O)n2C)cc1` (centres unmarked) [Example 52, 2-((1-(2,7-dimethyl-1-oxo-3-(4-(prop-1-yn-1-yl)phenyl)-1,2-dihydroisoquinolin-5-yl)ethyl)amino)benzoic acid]: in assay [1], inhibition was half-maximal at 375 nM (IC50) and the “selectivity: WT/H1047R” value worked out at 25.2. Moreover, in assay [2], the IC50 turned out to be 75.6 nM and the “Selectivity: SK-BR-3/T-47D (p-AKT)” value was determined as 95.1.

For `Cc1cc(C(C)Nc2ccccc2C(=O)O)c2cc(-c3ccc4c(c3)C3CC3O4)n(C)c(=O)c2c1` (centres unmarked) [Example 53, 2-((1-(3-(1a,6b-dihydro-1H-cyclopropa[b]benzofuran-5-yl)-2,7-dimethyl-1-oxo-1,2-dihydroisoquinolin-5-yl)ethyl)amino)benzoic acid], in assay [1], 261 nM corresponded to half-maximal inhibition (IC50) and the “selectivity: WT/H1047R” value was 18.5. In addition, in assay [2], the IC50 was found to be 44.7 nM and the “Selectivity: SK-BR-3/T-47D (p-AKT)” value was determined as 56.6.

These data come from patent US20260125346A1, “Isoquinolinone Derivatives and 4H-Quinolizinone Derivatives and Pharmaceutical Compositions Thereof for the Treatment of Disease” (BeOne Medicines I GmbH, priority 2023, published 2026).
